Some test systems named below: ACHN renal; HOP-62 NSCLC; MOLT-4 leukemia; NCI/ADR-RES ovarian; OVCAR-3 ovarian; OVCAR-5 ovarian; RXF 393 renal; SF-295 CNS; SNB-75 CNS; SW-620 colon.
Holding throughout (experiment): NCI tumour cell line growth inhibition, 48 h

Several values for one entry are separate records, joined by “and”; a condition that tells them apart may be missing. Identical values can stand only once.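 96-well plates; 48 h exposure; 5 concentrations. Endpoints by linear interpolation between flanking doses. Not reached: highest tested concentration assigned. GI50: concentration for 50% inhibition of growth. Definition used: TGI = concentration required for complete inhibition of growth.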

With `O=C(NCCCl)NCCN1c2nc3ccccc3cc2Sc2cc3ccccc3nc21`, the GI50 in the assay with ACHN renal was 3.02 µM; with HOP-62 NSCLC it was 2.8 µM; in the assay with MOLT-4 leukemia, 0.861 µM; in the assay with NCI/ADR-RES ovarian it was 1.61 µM; with OVCAR-3 ovarian, 1.45 µM; in the assay with OVCAR-5 ovarian, 4.24 µM. The GI50 with RXF 393 renal was 6.45 µM; in the assay with SF-295 CNS it was 0.569 µM; with SNB-75 CNS it was 0.558 µM; in the assay with SW-620 colon, 1.16 µM. Further, the TGI in the assay on ACHN renal was over 45.9 µM; in the assay on HOP-62 NSCLC it was 9.87 µM; in the assay on NCI/ADR-RES ovarian, 13 µM; in the assay with OVCAR-3 ovarian it was 16.1 µM; in the assay with OVCAR-5 ovarian, over 44.5 µM; with RXF 393 renal, 27.9 µM. Moreover, the TGI with SF-295 CNS came out at 3.75 µM; with SNB-75 CNS, 5.47 µM; in the assay on SW-620 colon it was 2.95 µM.
As to `O=C(/C=C\c1cc(Br)ccc1O)/C=C/c1cc(Br)ccc1O`, the GI50 in the assay with ACHN renal is 0.661 µM; in the assay on HOP-62 NSCLC, 3.22 µM; in the assay on MOLT-4 leukemia, 0.316 µM; in the assay with NCI/ADR-RES ovarian it was 0.321 µM; in the assay with OVCAR-3 ovarian it was 0.351 µM; with OVCAR-5 ovarian, 1.67 µM. Moreover, the GI50 in the assay on RXF 393 renal was 0.348 µM; in the assay on SF-295 CNS, 0.538 µM; in the assay on SNB-75 CNS, 1.34 µM; in the assay on SW-620 colon it was 0.379 µM. Moreover, the TGI amounted to 2.05 µM in the assay on ACHN renal; 9.44 µM with HOP-62 NSCLC; 12 µM in the assay with MOLT-4 leukemia; 12.9 µM in the assay with NCI/ADR-RES ovarian; 1.13 µM in the assay with OVCAR-3 ovarian; 3.33 µM in the assay with OVCAR-5 ovarian. Also, the TGI in the assay with RXF 393 renal came out at 1.41 µM; in the assay on SF-295 CNS, 1.93 µM; with SNB-75 CNS it was 2.8 µM; in the assay with SW-620 colon, 1.61 µM.
As to `[N-]=[N+]=NCCCn1c2c(c3ccc([N+](=O)[O-])cc3c1=O)C(=O)c1cc(I)ccc1-2`, the GI50 in the assay with ACHN renal was 2.25 µM; with HOP-62 NSCLC, 1.82 µM; in the assay on MOLT-4 leukemia, 0.833 µM; with NCI/ADR-RES ovarian it was 4.17 µM; in the assay with OVCAR-3 ovarian, 18.3 µM; in the assay with OVCAR-5 ovarian, 41.2 µM. For the same compound, the GI50 in the assay with RXF 393 renal is 12.5 µM; with SF-295 CNS it was 1.54 µM; with SNB-75 CNS, 8.63 µM; in the assay with SW-620 colon, 1.72 µM. The TGI with ACHN renal was 7.5 µM; with HOP-62 NSCLC it was 38.8 µM; in the assay on MOLT-4 leukemia, 5.08 µM; with NCI/ADR-RES ovarian, 46.6 µM; in the assay on OVCAR-3 ovarian it was over 100 µM; in the assay on OVCAR-5 ovarian it was over 100 µM. The TGI in the assay with RXF 393 renal was 62.8 µM; in the assay on SF-295 CNS it was over 100 µM; with SNB-75 CNS, over 100 µM; in the assay with SW-620 colon, over 100 µM.
As for `O=C(CN1CCN(CCN2C(=O)c3cccc4cccc(c34)C2=O)CC1)Nc1ccc2ncsc2c1`, the GI50 with ACHN renal was 4.09 µM; in the assay on HOP-62 NSCLC it was 5.69 µM; in the assay on MOLT-4 leukemia, 2.87 µM; in the assay on NCI/ADR-RES ovarian, 6.2 µM; in the assay on OVCAR-3 ovarian, 7.34 µM; in the assay on OVCAR-5 ovarian it was 10.5 µM. Besides, the GI50 in the assay on RXF 393 renal is 6.32 µM; with SF-295 CNS, 4.9 µM; in the assay on SNB-75 CNS, 9.44 µM; in the assay with SW-620 colon, 3.19 µM. In addition, the TGI is 16.5 µM in the assay with ACHN renal; 23.4 µM in the assay on HOP-62 NSCLC; 15.3 µM with MOLT-4 leukemia; 53.8 µM in the assay with NCI/ADR-RES ovarian; 21.5 µM with OVCAR-3 ovarian; over 100 µM in the assay on OVCAR-5 ovarian. For the same compound, the TGI was over 100 µM in the assay on RXF 393 renal, 20.7 µM in the assay with SF-295 CNS, over 100 µM with SNB-75 CNS and 19.3 µM in the assay on SW-620 colon.
For `CN1C(=O)/C(=C2\S/C(=N\c3nnc(-c4ccccc4)o3)NC2=O)c2ccccc21`, the GI50 with ACHN renal was over 100 µM; with HOP-62 NSCLC, 68.8 µM; with MOLT-4 leukemia, over 100 µM; in the assay on NCI/ADR-RES ovarian it was 84.7 µM; in the assay on OVCAR-3 ovarian, over 100 µM; in the assay with OVCAR-5 ovarian, over 100 µM. Besides, the GI50 in the assay on RXF 393 renal was over 100 µM; in the assay with SF-295 CNS it was 41.2 µM; in the assay with SNB-75 CNS it was over 100 µM; in the assay with SW-620 colon, over 100 µM. The TGI in the assay on ACHN renal, in the assay with HOP-62 NSCLC, with MOLT-4 leukemia, in the assay on NCI/ADR-RES ovarian, in the assay with OVCAR-3 ovarian and with OVCAR-5 ovarian was over 100 µM throughout. The TGI in the assay on RXF 393 renal, with SF-295 CNS, in the assay on SNB-75 CNS and in the assay with SW-620 colon was over 100 µM each time.
`CCCCOC(=O)/C=C\C(=O)NC(N)=O`: the GI50 in the assay with ACHN renal is 15.3 µM; in the assay on HOP-62 NSCLC it was 32.5 µM; in the assay on MOLT-4 leukemia it was 38.3 µM; in the assay with NCI/ADR-RES ovarian, 27 µM; in the assay with OVCAR-3 ovarian, 13 µM; in the assay with OVCAR-5 ovarian, 25.6 µM. Moreover, the GI50 was 12.7 µM in the assay with RXF 393 renal, 47.2 µM with SF-295 CNS, 18 µM with SNB-75 CNS and 14.5 µM in the assay with SW-620 colon. The TGI in the assay on ACHN renal was 30.3 µM; in the assay on HOP-62 NSCLC, over 100 µM; with MOLT-4 leukemia it was over 100 µM; in the assay on NCI/ADR-RES ovarian, 74.3 µM; with OVCAR-3 ovarian it was 26.2 µM; in the assay with OVCAR-5 ovarian, 81.7 µM. The TGI in the assay with RXF 393 renal was 27.1 µM; in the assay with SF-295 CNS, over 100 µM; with SNB-75 CNS, 74.9 µM; with SW-620 colon, 32.3 µM.
With `CC(=O)N(C)c1cc(NCc2ccccc2)ccc1OCc1ccccc1`, the TGI in the assay on ACHN renal was 36.5 µM; with HOP-62 NSCLC, over 100 µM; in the assay on MOLT-4 leukemia, 50.4 µM; in the assay on NCI/ADR-RES ovarian, 44.8 µM; in the assay with OVCAR-3 ovarian it was 32.8 µM; in the assay with OVCAR-5 ovarian, 38.3 µM. In addition, the TGI with RXF 393 renal was 28.6 µM; with SF-295 CNS, 29.6 µM; in the assay on SNB-75 CNS it was 41.5 µM; with SW-620 colon, 56.5 µM.
Regarding `CC(C)n1nc(C#Cc2cccc(O)c2)c2c(N)ncnc21`, the GI50 in the assay on ACHN renal is 1.05 µM and 0.461 µM; in the assay with HOP-62 NSCLC, 1.18 µM and 1.3 µM; with MOLT-4 leukemia, 1.2 µM and 0.412 µM; in the assay on NCI/ADR-RES ovarian it was 2.38 µM and 1.87 µM; in the assay with OVCAR-3 ovarian, 1.32 µM and 1.7 µM; in the assay with OVCAR-5 ovarian, 1.79 µM and 1.62 µM. For the same compound, the GI50 is 1.15 µM and 0.481 µM in the assay with RXF 393 renal; 3.16 µM and 1.17 µM with SF-295 CNS; 0.161 µM and 0.442 µM with SNB-75 CNS; 2.08 µM and 1.72 µM with SW-620 colon. In addition, the TGI in the assay on ACHN renal is 4.18 µM and 3.96 µM; with HOP-62 NSCLC, 4.31 µM and 5 µM; in the assay on MOLT-4 leukemia, 9.4 µM and 4.7 µM; with NCI/ADR-RES ovarian, 24.7 µM and 7.09 µM; with OVCAR-3 ovarian, 5.62 µM and 7.63 µM; in the assay on OVCAR-5 ovarian, 16.4 µM and 8 µM. The TGI in the assay on RXF 393 renal is 4.2 µM and 1.5 µM; in the assay with SF-295 CNS, 12.2 µM and 3.58 µM; in the assay on SNB-75 CNS, 1.12 µM and 2.09 µM; in the assay on SW-620 colon, 50 µM and 31.9 µM.

These data come from PubChem BioAssay (NCI).
